From the NIST ThermoML archive (doi:10.1016/j.jct.2019.07.013)
± gives the expanded uncertainty stated by the source.

Details: for mass density: 100 kPa, Vibrating tube method; for mass density / electrical conductivity: Liquid; for electrical conductivity: 101.33 kPa, Direct current cell with electrodes; for Glass transition temperature: DSC

Row | SMILES | mass density (283.15 K) [kg/m3] | mass density (288.15 K) [kg/m3] | mass density (293.15 K) [kg/m3] | mass density (298.15 K) [kg/m3] | mass density (303.15 K) [kg/m3] | mass density (308.15 K) [kg/m3] | mass density (313.15 K) [kg/m3] | mass density (318.15 K) [kg/m3] | mass density (323.15 K) [kg/m3] | electrical conductivity (293.15 K) [S/m] | electrical conductivity (298.15 K) [S/m] | electrical conductivity (303.15 K) [S/m] | electrical conductivity (308.15 K) [S/m] | electrical conductivity (313.15 K) [S/m] | electrical conductivity (318.15 K) [S/m] | electrical conductivity (323.15 K) [S/m] | Glass transition temperature [°C] | Normal melting temperature (Crystal, DTA) [°C]
1 | CCCCCC[n+]1ccn(C)c1.O=S(=O)([N-]S(=O)(=O)C(F)(F)F)C(F)(F)F | 1386 ± 5 | 1381.41 ± 5 | 1376.82 ± 5 | 1371.8 ± 5 | 1367.65 ± 5 | 1363.1 ± 5 | 1357.5 ± 5 | 1352.61 ± 5 | 1349.44 ± 5 |  |  |  |  |  |  |  |  | 
2 | O [water] | 999.7 ± 0.05 | 999.05 ± 0.05 |  |  |  |  | 992.31 ± 0.06 | 990.42 ± 0.06 | 988.3 ± 0.06 |  |  |  |  |  |  |  |  | 

Other lines, results leading:

Row | mass density (283.15 K) [kg/m3] | mass density (288.15 K) [kg/m3] | mass density (293.15 K) [kg/m3] | mass density (298.15 K) [kg/m3] | mass density (303.15 K) [kg/m3] | mass density (308.15 K) [kg/m3] | mass density (313.15 K) [kg/m3] | mass density (318.15 K) [kg/m3] | mass density (323.15 K) [kg/m3] | electrical conductivity (293.15 K) [S/m] | electrical conductivity (298.15 K) [S/m] | electrical conductivity (303.15 K) [S/m] | electrical conductivity (308.15 K) [S/m] | electrical conductivity (313.15 K) [S/m] | electrical conductivity (318.15 K) [S/m] | electrical conductivity (323.15 K) [S/m] | Glass transition temperature [°C] | Normal melting temperature (Crystal, DTA) [°C] | SMILES
3 | 1229.25 ± 6.8 | 1225.9 ± 6.7 | 1222.43 ± 6.7 | 1218.74 ± 6.7 | 1214.96 ± 6.7 | 1211.48 ± 6.7 | 1207.96 ± 6.6 | 1204.4 ± 6.6 | 1200.81 ± 6.6 | 0.00255 ± 0.00018 | 0.00445 ± 0.00031 | 0.00733 ± 0.00051 | 0.0114 ± 0.0008 | 0.0175 ± 0.0012 | 0.0256 ± 0.0018 | 0.0366 ± 0.0026 | -49.00 ± 1.2 |  | C=CCCn1cc[n+](CCCC)c1.[Br-] [1-(3-butenyl)-3-butylimidazolium bromide]
4 | 1305.11 ± 5.7 | 1301.34 ± 5.7 | 1297.64 ± 5.7 | 1294.11 ± 5.6 | 1290.54 ± 5.6 | 1286.92 ± 5.6 | 1283.26 ± 5.6 | 1279.57 ± 5.6 | 1275.88 ± 5.6 | 0.014 ± 0.00098 | 0.0226 ± 0.0016 | 0.0353 ± 0.0025 | 0.0524 ± 0.0037 | 0.0747 ± 0.0052 | 0.12 ± 0.0084 | 0.162 ± 0.011 | -63.48 ± 1.2 | 70.68 ± 1.1 | C=CCCn1cc[n+](CC)c1.[Br-] [1-(3-butenyl)-3-ethylimidazolium bromide]
5 | 1354.24 ± 15 | 1350.42 ± 15 | 1346.67 ± 14 | 1343.07 ± 14 | 1339.41 ± 14 | 1335.7 ± 14 | 1331.9 ± 14 | 1328.14 ± 14 | 1324.34 ± 14 | 0.0126 ± 0.00089 | 0.0214 ± 0.0015 | 0.0343 ± 0.0024 | 0.0522 ± 0.0037 | 0.0772 ± 0.0054 | 0.116 ± 0.0081 | 0.162 ± 0.011 | -49.60 ± 1.2 |  | C=CCCn1cc[n+](C)c1.[Br-] [1-(3-butenyl)-3-methylimidazolium bromide]
